In patent US20220151979A1, “COMPOSITION FOR PREVENTION OR TREATMENT OF CARDIOVASCULAR AND METABOLIC DISEASE COMPRISING NORANHYDROICARITIN” (SEOUL NATIONAL UNIVERSITY HOSPITAL, priority 2019, published 2022):

How the values were obtained:
Format in all cases: cell-based, human
[1] = tested on: PCSK9 mRNA; test: PCSK9 mRNA by RealTime-PCR in HepG2 cells; conditions: 24 hours
Excerpt: Proprotein convertase subtilisin/kexin type 9 (PCSK9) is an enzyme involved in lipid metabolism and is attached to low-density lipoprotein receptor (LDLR) bound to low-density lipoprotein (LDL) in the liver or other cell membranes to degrade LDLR so that LDLR cannot be regenerated into the cell membrane and cannot absorb extracellular LDL. Therefore, inhibition of PCSK9 production increases LDLR, decreases extracellular LDL, and lowers cholesterol levels, and thus lipid metabolism-related diseases may be alleviated. Therefore, in order to confirm the PCSK9 production inhibitory effect of noranhydroicaritin, HepG2 cells were treated with noranhydroicaritin at various concentrations, and then the relative quantity of PCSK9 mRAN was confirmed through RealTime-PCR.
Specifically, HepG2 cells were suspended at a concentration of 2.5×10^5 cells/mL, and 1 mL thereof was inoculated into each well of a […], and then maintained for one day. The HepG2 cells in the well plate were treated with kaempferol and noranhydroicaritin at concentrations of 2.5 μM, 5 μM, 10 μM, and 20 μM, and incubated for 24 hours, and then RNA was recovered, quantified, and stored at −70° C. Thereafter, cDNA was synthesized from the RNA and the quantity of PCSK9 mRNA was confirmed through RealTime-PCR analysis. The group treated only with DMSO was used as a negative control. […]

[2] = tested on: LDLR; test: Immunoblot of LDLR in HepG2 cells; conditions: HepG2 cells, 5, 10, 20 μM
Procedure: In order to confirm the effect of noranhydroicaritin to inhibit PCSK9 expression and increase LDLR expression, immunoblotting targeting PCSK9 and LDLR was performed and the expression levels were compared. β-Actin was used as a control.
In a 100 mm Petri dish, 1×10^6 HepG2 cells were aliquoted and treated with noranhydroicaritin at various concentrations (5 μM, 10 μM, and 20 μM), and then the cells were removed from the cell-culture dish and homogenized using a protein extraction solution (NP40, ELPIS BIOTECH, Korea) containing a protease inhibitor cocktail (Roche).
In order to prepare the total protein, the cells were extracted in RIPA lysis buffer (50 mM Tris-HCl (pH 7.4), 150 mM NaCl, 5 mM EDTA, 5 mM EGTA, 5 mM sodium fluoride, 2 mM sodium orthovanadate, 1% NP-40, 0.1% sodium dodecyl sulfate [SDS], 1 mM phenylmethylsulfonyl fluoride [PMSF], and protein inhibitor cocktail [Roche Diagnostics, Heidelberg, Germany]). The protein concentration in the lysate was measured using the Bio-Rad dye-binding micro assay. For immunoblotting, 30 μg of cell lysate was isolated via SDS-polyacrylamide gel electrophoresis (PAGE). The proteins were transferred onto the Hybond-ECL nitrocellulose membrane (Amersham Biosciences, Buckinghamshire, UK). […] HRP-conjugated secondary antibodies were detected using an ECL detection reagent.

[3] = tested on: PPARα; test: PPARα expression in HepG2 cells (RealTime-PCR, immunohistochemistry)
Procedure: In order to confirm the effect of increasing the expression of PPARα and PPARγ of noranhydroicaritin, PCR using PPARα primers and immunohistochemistry targeting PPARα and PPARγ were performed to confirm the expression levels.
Using cDNA synthesized with RNA according to the method of Example 4, the quantities of PPARα mRNA and PPARγ mRNA were confirmed through RealTime-PCR analysis. The group treated only with DMSO was used as a negative control. For immunohistochemistry, HepG2 cells were attached to a slide chamber, then treated with noranhydroicaritin at 20 μM, and incubated. After fixation with formalin, the HepG2 cells were stained with antibodies targeting PPARα and PPARγ, and treated with DAPI to stain nuclei, and the degree of fluorescent expression was confirmed using a confocal microscope.

[4] = tested on: SREBP 1 promoter; test: SREBP 1 promoter-reporter luciferase assay in HEK293T cells; conditions: pGL4.14-SREBP-transfected HEK293T cells, 18 hours, compared to control
Procedure: (§1) In order to confirm the SREBP gene expression inhibitory effect of noranhydroicaritin, HEK293T cells were treated with noranhydroicaritin and kaempferol, and it was confirmed whether the expression of SREBP was inhibited through a luciferase assay.
(§2) i) A primer was prepared to contain KpnI and XhoI restriction enzyme sites in the SREBP 1 and 2 promoter gene region, and then PCR (polymerase chain reaction) and electrophoresis on an agarose gel were performed to isolate SREBP promoter region DNA. A pGL4.14-[luc2/Hygro] vector containing a firefly luciferase as a reporter gene was treated with the same restriction enzymes (KpnI and XhoI), and then isolated via agarose gel electrophoresis and gel extraction. The purely isolated SREBP promoter gene region and pGL4.14-[luc2/Hygro] vector were reacted for 1 hour using In-fusion DNA ligase (Takara), and then transformed into E. coli to prepare a promoter-reporter construct in which the SREBP promoter was inserted, and this was named pGL4.14-SREBP.
(§3) ii) In order to measure the transcriptional activity of the SREBP promoter gene, HEK293T cells were transfected with pGL4.14-SREBP, and then the luciferase activity of the cell extract was measured. […] Thereafter, the luciferase activity was measured by the method of Example 6. […]

[5] = tested on: SREBP 2 promoter; test: SREBP 2 promoter-reporter luciferase assay in HEK293T cells; conditions: pGL4.14-SREBP-transfected HEK293T cells, 18 hours, compared to control
Procedure: as §1, §2, §3

[6] = tested on: PCSK9; test: Immunoblot of PCSK9 in HepG2 cells, noranhydroicaritin and pravastatin, pitavastatin, fluvastatin or simvastatin (Table 1); conditions: noranhydroicaritin 20 μM singly, untreated = 1 ± 0.04
Procedure: The cells aliquoted by the method of Example 7 were treated with noranhydroicaritin or each statin (pravastatin, pitavastatin, fluvastatin, or simvastatin) singly or with noranhydroicaritin and a statin (pravastatin, pitavastatin, fluvastatin, or simvastatin) simultaneously, and the proteins were extracted. On an SDS-polyacrylamide gel, 30 μg of each protein was electrophoresed, and attached to a membrane, and then protein expression levels were confirmed using the respective antibodies: PCSK9 and LDLR.

CC(C)=CCc1c(O)cc(O)c2c(=O)c(O)c(-c3ccc(O)cc3)oc12 [Noranhydroicaritin, noranhydroicaritin]
PCSK9 production inhibitory effect (quantity of PCSK9 mRNA) ([1]; 2.5 μM and 5 μM): remarkably superior to that of the control
PCSK9 production inhibitory effect (quantity of PCSK9 mRNA) ([1]; same concentration as control): superior to that of atorvastatin or rosuvastatin
LDLR expression (immunoblot) [2]: increased in a concentration-dependent manner
expression of PPARα [3]: increased in a concentration-dependent manner
SREBP 1 luciferase activity [4]: significantly decreased
SREBP 2 luciferase activity [5]: significantly decreased
PCSK9 [6]: 0.34 ± 0.02
